Read-outs that look alike come from different tables or passages of the source.
Columns and labels:
[1] = in vivo; cited from earlier work
[2] = several clinical studies; cited from earlier work
[3] = for plasma levels of nicotine by dose group: single and repeated dose parts
Description: The chamber 10 is a plastic drinking straw. The retainer 18 is a filter at the first end 12 of the straw. The user places the first end 12 of the device in a glass of apple juice and applies oral suction to the second end 14 of the device, such that the juice and nicotine 16 are delivered into the user's mouth.
The nicotine 16 in the device is in the form of coated sugar spheres of nicotine bitartrate having a diameter of approximately 500 micrometers. The nicotine spheres are prepared by spraying nicotine bitartrate dihydrate with a binder onto sugar spheres and applying a film coating. Using a Wurster processing unit, particles are suspended in air using a controlled airflow system and a coating suspension is added at a controlled rate via a pneumatically atomized nozzle. As atomized droplets of the coating solution contact the particles, they spread and coalesce on the particle surface. Excess moisture from the applied liquid evaporates in the apparatus, leaving a coated dry substance. Mixing of the coating suspension occurs throughout the manufacturing process to ensure uniformity of the suspension.
(§1) On day one, following overnight abstinence from smoking, healthy adult smokers who wish to give up smoking receive a single dose of nicotine or placebo. Smokers are assigned to each dosage group in a double blind, randomized manner, as is well known in the art. The following data are collected before dosing, every thirty minutes for the first two hours after dosing, and every hour for the following six hours: plasma levels of nicotine and cotinine, vital signs, adverse events, and patient's assessment of cigarette cravings. Baseline and endpoint clinical chemistry, hematology, urinalysis, and ECG are also monitored.
(§2) There were 6 subjects per treatment group. […] Apple juice was used as the beverage for delivering nicotine from the straw-like device.

[4] = From the text: as §1
On day eight, again following overnight abstinence from smoking, the same subjects receive the same dose of nicotine or placebo. The dose is repeated periodically throughout the day. The following data are collected as described above before the first dosing and one hour after each dose is administered: plasma levels of nicotine and cotinine, vital signs, adverse events, and patient's assessment of cigarette cravings. Baseline and endpoint clinical chemistry, hematology, urinalysis, and ECG are also monitored. The data are used to evaluate the safety and pharmacokinetics of nicotine delivery by the smoking cessation device.
as §2

Oc1ccc2c3c1O[C@H]1[C@H](O)CC[C@@]4(O)[C@@H](C2)N(CC2CC2)CC[C@]314 [6β-naltrexol]
plasma half-life [1]: 12 h

O=C1CC[C@@]2(O)[C@H]3Cc4ccc(O)c5c4[C@@]2(CCN3CC2CC2)[C@H]1O5 [Naltrexone, naltrexone]
effects on smoking cessation [2]: only small effects

CN1CCCC1c1cccnc1 (centres unmarked) [nicotine]
plasma levels of nicotine by dose group ([3]; 4 mg dose group): lowest plasma levels | plasma levels of nicotine by dose group ([3]; 8 mg and 12 mg dose groups): higher plasma levels | nicotine levels in most subjects ([3]; 15 minutes after dosing): already increased | plasma nicotine on repeated dosing ([3]; repeated dosing every 1.5 hours, 10.5 hour sampling period): continuous increases | plasma levels of nicotine versus marketed nicotine replacement products ([3]; single dose 4 mg, 8 mg or 12 mg, straw-like device, FIG. 3): comparable to or greater than | kinetics compared with nicotine gum ([3]; straw-like device, FIG. 4): very similar | tolerability ([4]; 4 mg and 8 mg doses in straw-like delivery device): well tolerated | nausea and vomiting ([4]; 12 mg dose versus 4 mg and 8 mg): seen only with the 12 mg dose | adverse events observed ([4]; all nicotine doses): lightheadedness, nausea, and vomiting | clinical chemistry, hematology, urinalysis or ECG values ([4]; human, in vivo): no clinically significant changes | vital sign measurements ([4]; human, in vivo): Occasional increases | craving for cigarettes ([4]; over the repeat dosing session, all subjects receiving nicotine): decreased
